Laboratory results reported in patent publication US5691348A, “Pyridyl imidazole derivatives and processes for the preparation thereof” (Daewoo Electronics Co., Ltd., priority 1994, dated 1997).

Experiments:
[1] = system: angiotensin II receptor; assay: Angiotensin II receptor binding assay ([3H] angiotensin II); set-up: species or system rat (Sprague-Dawley adrenal cortex/medulla; Wistar liver); details: 25° C., 60 minutes, test concentration not given
Experimental: 1. Angiotensin II receptor binding assay
In accordance with the procedure disclosed in Chiu, A. T. et al., Eur. J. Pharm., 157, 13(1981), a ligand marked with a radioisotope was reacted with an angiotensin II receptor and the reactant was filtered with a glass fiber to remove unreacted ligand. After washing the filter, the amount of the remaining isotope was measured to determine the binding activity of the ligand, as described below in detail.
Sprague-Dawley rats and Wistar rats of 250 to 350 g (from The Korea Research Institute of Chemical Technology) were tested and the test procedures were carried out at 4° C., unless otherwise specified. Adrenal gland was separated from the Sprague-Dawley rats (liver, in the case of Wistar rats) into cortex and medulla. The separated adrenal cortex and medulla were washed with a sucrose buffer solution (0.2M sucrose, 1 mM EDTA, 10 mM Tris, Ph 7.2) and homogenized in the same buffer solution by using a Teflon pestle and a Brinkmann homogenizer. The homogenates were centrifuged at 3,000× g for 10 minutes to remove precipitates and further centrifuged at 12,000× g for 13 minutes. The final supernatants were centrifuged at 102,000× g for 1 hour to obtain precipitates, which were washed with a Tris buffer solution (50 mM Tris, 5 mM MgCl2, pH 7.2) and recentrifuged at 102,000× g for 1 hour. The resulting precipitates were immediately processed at the following step or stored at -70° C.
The precipitates were suspended in a Tris buffer solution. The amount of protein was determined by using a Bio-Rad DC protein analyzing kit and the protein concentration was adjusted to the amounts of: 0.2 to 0.3 mg/ml (Sprague-Dawley rat: adrenal cortex), 1.5 to 2.0 mg/ml (Sprague-Dawley rat: adrenal medulla), and 1.5 to 2.0 mg/ml (Wistar rat: liver). To the suspension, bovine serum albumin(BSA) was added to a concentration of 0.25 wt % and the resultant was immediately processed at the following step or stored at -70° C.
50 μl (based on ligand) of [^3 H] angiotensin II (NEN, NET-446) and 10 μl of each of the test compounds with various concentrations were added to the buffer solution (50 mM Tris (pH 7.2), 5 mM MgCl2, 0.25% BSA) to adjust the final volume to be 0.5 ml. 100 μl of the receptor suspension was added thereto and the resulting solution was reacted for 60 minutes while stirring in a water bath at 25° C. 3 ml of cold buffer solution for analysis was added to cease the reaction. The isotope which was bound to the receptor was isolated from the resultant by using Brandel Cell Harvester System with Whatman glass fiber GF/C. After washing the filter, the radioactivity of the filter was determined by using a liquid scintillation counter. Binding inhibition(%) of the test compound was calculated as follows:
Binding Inhibition(%)=[{(T-B)-(S-B)}/(T-B)]×100
wherein T is the radioactivity (cpm) of the reaction product untreated with the test compound, S is the radioactivity (cpm) of the reaction product treated with the test compound, and B is the radioactivity (cpm) of blank test.

[2] = system: renal hypertensive rat; assay: Blood pressure lowering effect in renal hypertension; format: in vivo, Sprague-Dawley rat; details: intravenous or oral (not specified)
Source text: (§1) To induce renal hypertension, left renal artery of 4 week-old male Sprague-Dawley rat (from The Korea Research Institute of Chemical Technology) was ligated. The rat was anesthetized with ether and the surgical region on the left abdomen of the rat was shaved, disinfected, and then incised about 1 cm vertically. The renal artery near abdominal aorta was isolated carefully from surrounding tissues and veins, and then ligated completely with a suture (4/0 sterile surgical silk). The muscular strata and skin of the surgical area were sutured with a suture (4/0 sterile surgical silk). The surgical region was disinfected to prevent infection and thereafter, 200 to 250 mg/kg/day of cephazolin sodium was injected intramuscularly for 2 days. 6 to 8 days after the ligation, rats showing systolic pressure of more than 180 mmHg were selected for renal hypertension test. The blood pressure was determined by a tail-cuff method from the tail under unanesthetized condition (Gerold, M. et al., Arzneimittel-Forsch., 18, 1285(1968)).
(§2) Each of the compounds to be tested was administered intravenously or orally into the renal hypertensive rat. The blood pressure of the rat was determined by direct method (Chiu, A. T. et al., J. Pharmacol. Exp. Ther., 250, 867(1989)) using a catheter. The rat was anesthetized with ketamine hydrochloride (125 mg/kg, i.p.) and a catheter was filled with saline and inserted into a carotid artery and […]. The surgical area was sutured with a metal clip. The rat was relaxed at least 3 hours and the catheter in the carotid artery was adapted to an isotec pressure transducer to determine the blood pressure and heart rate with a physiograph (Linearcorder WR3310). After the blood pressure was stabilized, the test compound was administered intravenously or orally. For intravenous administration, the administered volume and washing volume were 1.0 ml/kg and 0.2 ml, respectively. The blood pressure and heart rate were measured in regular intervals up to 24 hours after the administration of the test compound and compared with those measured after the administration of the control compound Losartan.
(§3) The test compound was dissolved in 0.05N KOH for intravenous administration and suspended in Tween 80 for oral administration.

[3] = system: unanesthetized dogs; assay: Maximum blood pressure lowering effect in unanesthetized dogs at different amounts; format: in vivo, dog
Experimental: (§4) A number of dog was fed freely in a feeding room and those weighing 7 to 12 kg in good health were selected regardless of their gender.
(§5) The test dog was anesthetized with 30 mg/kg of pentobarbital sodium by intravenous injection and the left femoral artery and femoral vein were separated carefully. Silicone catheter, specially prepared and filled with saline treated with heparin (1,000 IU/ml), was cannulated into the blood vessels. After the surgery, the dog was constrained to measure the blood pressure continuously with Gould 2000 physiograph adapted to a Grass P23XL pressure transducer; and the heart rate was monitored with ECG/Biotacho amplifier. The dog was tested at least 2 days after the surgery.
(§6) 10 mg/kg of furosemide was injected intramuscularly 18 hours (in case of intravenous injection, 2 hours) before the beginning of the test (administration of the test compound) to improve the activity of renin in blood plasma. After the injection of furosemide, neither food nor water was provided. The test compound was suspended in Tween 80 and administered in an amount of 20 mg/kg orally. The blood pressure and heart rate were measured up to 8 hours after the administration of each test compound.
The maximum blood pressure lowering effect of the present compounds and the control compounds were determined in different amounts of administration using the same method as (i) and the results are given in Table 4.

[4] = system: renal hypertensive rat; assay: Blood pressure lowering effect with respect to dose (renal hypertensive rats); format: in vivo, Sprague-Dawley rat; details: oral
Source text: as §1, §2, §3
The present compounds, Losartan(Dup 753) and the Merck compound were administrated orally to rats in 10, 3 and 1 mg/kg under the same condition as in (ii) and the blood pressure lowering effect was determined.

[5] = system: unanesthetized dogs; assay: Blood pressure variation with time in unanesthetized dogs; format: in vivo, dog; details: for Maximum Blood Pressure Lowering Effect: 3 mg, oral
Experimental: as §4, §5
as §6, with “The test compound was suspended in Tween 80 and administered in an amount of 20 mg/kg orally.” left out

In the case of `CCCCc1nc2cc(-c3cc[n+]([O-])cc3)c(CO)nc2n1Cc1ccc(-c2ccccc2-c2nn[nH]n2)cc1` [Example 2, 2-Butyl-5-hyroxymethyl-6-(1-oxy-pyridin-4-yl)-3-[2'-(1H-tetrazol-5-yl)-biphenyl-4-ylmethyl]-3H-imidazo[4,5-b]pyridine], the “Binding Inhibition” value [1] is reported as 96.9%.

`CCCCc1nc2cc(-c3cccc[n+]3[O-])c(C(=O)OC)nc2n1Cc1ccc(-c2ccccc2-c2nn[nH]n2)cc1` [Example 4, 2-Butyl-5-methoxycarbonyl-6-(1-oxy-pyridin-2-yl)-3-[2'-(1H-tetrazol-5-yl)-biphenyl-4-ylmethyl]-3H-imidazo[4,5-b]pyridine] was tested, and the “Binding Inhibition” value [1] was 92.1%.

With `CCCCc1nc2cc(-c3cccc[n+]3[O-])c(C(=O)N(CC)CC)nc2n1Cc1ccc(-c2ccccc2-c2nn[nH]n2)cc1` [Example 5, 2-Butyl-6-(1-oxy-pyridin-2-yl)-3-[2'-(1H-tetrazol-5-yl)-biphenyl-4-ylmethyl]-3H-imidazo[4,5-b]pyridin-5-carboxylate Diethylamide] the “Binding Inhibition” value [1] was 60.3%.

For `CCCCc1nc2cc(-c3ccc[n+]([O-])c3)c(C)nc2n1Cc1ccc(-c2ccccc2-c2nn[nH]n2)cc1` [Example 6, 2-Butyl-5-methyl-6-(1-oxy-pyridin-3-yl)-3-[2'-(1H-tetrazol-5-yl)-biphenyl-4-ylmethyl]-3H-imidazo[4,5-b]pyridine], the “Binding Inhibition” value [1] was 94.6%, the “Maximum Blood Pressure Lowering Effect” value ([2]; Amount 3 mg) was -38% and the “Maximum Blood Pressure Lowering Effect” value ([3]; 0.3 mg/kg) was -9%. For the same compound, the “Maximum Blood Pressure Lowering Effect” value ([3]; 1 mg/kg) was -12%.

For `CCCCc1nc2cc(-c3cc[n+]([O-])cc3)c(C)nc2n1Cc1ccc(-c2ccccc2-c2nn[nH]n2)cc1` [Example 7, 2-Butyl-5-methyl-6-(1-oxy-pyridin-4-yl)-3-[2'-(1H-tetrazol-5-yl)-biphenyl-4-ylmethyl]-3H-imidazo[4,5-b]pyridine], the “Binding Inhibition” value [1] was 95.5%.

`CCCCc1nc(Cl)c(CO)n1Cc1ccc(-c2ccccc2-c2nn[nH]n2)cc1` [Losartan (Dup 753), Losartan, reference compound] was tested, and the “Binding Inhibition” value [1] was 48.0%, the “Maximum Blood Pressure Lowering Effect” value ([4]; 3 mg/kg) was -30% and the “Maximum Blood Pressure Lowering Effect” value ([4]; 10 mg/kg) was -46%. For the same compound, the “Maximum Blood Pressure Lowering Effect” value ([5]; 0.5 hr) was -11.0%, the “Maximum Blood Pressure Lowering Effect” value ([5]; 1 hr) was -12.3% and the “Maximum Blood Pressure Lowering Effect” value ([5]; 2 hr) was -12.8%. The “Maximum Blood Pressure Lowering Effect” value ([5]; 4 hr) was -9.9%, the “Maximum Blood Pressure Lowering Effect” value ([5]; 6 hr) was -10.1% and the “Maximum Blood Pressure Lowering Effect” value ([5]; 8 hr) was -8.2%. The “time for which the maximum blood pressure lowering effect lasted after the administration” value ([5]; Table 3, present compounds 1.0 mg, control compound 3 mg) was “up to 2 hours”, the “Maximum Blood Pressure Lowering Effect” value ([2]; Amount 10 mg) was -27% and the “Maximum Blood Pressure Lowering Effect” value ([3]; 3 mg/kg) was -13%. The “Maximum Blood Pressure Lowering Effect” value ([3]; 10 mg/kg) was -23%.
